# Patent US7381746B2, “2-Aminobicyclo[3.1.0]hexane-2,6-dicarboxylic acid derivative” (Taisho Pharmaceutical Co., Ltd., priority 2003, dated 2008)
row,SMILES,melting point [°C]
1,"CC(S[C@@H]1C[C@@H]2[C@H]([C@]1(N)C(=O)O)[C@@]2(F)C(=O)O)c1ccccc1 (stereo partly drawn) [Compound 15, (1R,2S,3R,5R,6R)-2-amino-3-(1-phenyl-ethylsulfanyl)-6-fluorobicyclo[3.1.0]hexane-2,6-dicarboxylic acid]",> 307
2,"N[C@]1(C(=O)O)[C@H]2[C@@H](C[C@H]1SC(c1ccc(F)cc1)c1ccc(F)cc1)[C@]2(F)C(=O)O [Compound 16, (1R,2S,3R,5R,6R)-2-amino-3-[bis-(4-fluorophenyl)methylsulfanyl]-6-fluorobicyclo[3.1.0]hexane-2,6-dicarboxylic acid]",> 243
3,"N[C@@H]1C[C@@H]2[C@H]([C@]1(N)C(=O)O)[C@@]2(F)C(=O)O [Compound 17, (1R,2R,3R,5R,6R)-2,3-diamino-6-fluorobicyclo[3.1.0]hexane-2,6-dicarboxylic acid]",> 256
4,"N[C@]1(C(=O)O)[C@H]2[C@@H](C[C@H]1SCc1ccccc1-c1ccccc1)[C@]2(F)C(=O)O [Compound 2, (1R,2S,3R,5R,6R)-2-amino-3-(2-phenylbenzylsulfanyl)-6-fluorobicyclo[3.1.0]hexane-2,6-dicarboxylic acid]",> 230
5,"N[C@]1(C(=O)O)[C@H]2[C@@H](C[C@H]1Sc1ccc(Cl)c(Cl)c1)[C@]2(F)C(=O)O [Compound 12, (1R,2S,3R,5R,6R)-2-amino-3-(3,4-dichlorophenylsulfanyl)-6-fluorobicyclo[3.1.0]hexane-2,6-dicarboxylic acid]",> 235
6,"N[C@]1(C(=O)O)[C@@H]2[C@@H](C[C@H]1SCc1ccc(Cl)c(Cl)c1)[C@H]2C(=O)O [Compound 8, (1R,2S,3R,5R,6R)-2-amino-3-(3,4-dichlorobenzylsulfanyl)-bicyclo[3.1.0]hexane-2,6-dicarboxylic acid]",> 289
7,"N[C@]1(C(=O)O)[C@H]2[C@@H](C[C@H]1NCc1ccc(Cl)c(Cl)c1)[C@]2(F)C(=O)O [Compound 18, (1R,2R,3R,5R,6R)-2-amino-3-(3,4-dichlorobenzylamino)-6-fluorobicyclo[3.1.0]hexane-2,6-dicarboxylic acid]",> 190

# Next, values leading:
row,melting point [°C],SMILES
1,> 271,"CC(C)(C)c1ccc(CS[C@@H]2C[C@@H]3[C@H]([C@]2(N)C(=O)O)[C@@]3(F)C(=O)O)cc1 [Compound 5, (1R,2S,3R,5R,6R)-2-amino-3-(4-t-butylbenzylsulfanyl)-6-fluorobicyclo[3.1.0]hexane-2,6-dicarboxylic acid]"
2,> 280,"N[C@]1(C(=O)O)[C@H]2[C@@H](C[C@H]1SCc1ccc3ccccc3c1Br)[C@]2(F)C(=O)O [Compound 7, (1R,2S,3R,5R,6R)-2-amino-3-(1-bromo-naphthalene-2-ylmethylsulfanyl)-6-fluorobicyclo[3.1.0]hexane-2,6-dicarboxylic acid]"
3,> 240,"COc1ccc(CS[C@@H]2C[C@@H]3[C@H]([C@]2(N)C(=O)O)[C@@]3(F)C(=O)O)cc1 [Compound 3, (1R,2S,3R,5R,6R)-2-amino-3-(4-methoxybenzylsulfanyl)-6-fluorobicyclo[3.1.0]hexane-2,6-dicarboxylic acid]"
4,> 230,"N[C@]1(C(=O)O)[C@H]2[C@@H](C[C@H]1SCc1cccs1)[C@]2(F)C(=O)O [Compound 1, (1R,2S,3R,5R,6R)-2-amino-3-(thiophene-2-ylmethylsulfanyl)-6-fluorobicyclo[3.1.0]hexane-2,6-dicarboxylic acid]"
5,> 234,"N[C@]1(C(=O)O)[C@H]2[C@@H](C[C@H]1SCc1c(F)ccc(Cl)c1F)[C@]2(F)C(=O)O [Compound 13, (1R,2S,3R,5R,6R)-2-amino-3-(3-chloro-2,6-difluorobenzylsulfanyl)-6-fluorobicyclo[3.1.0]hexane-2,6-dicarboxylic acid]"
6,> 220,"N[C@]1(C(=O)O)[C@H]2[C@@H](C[C@H]1SCc1ccc(Cl)c(Cl)c1)[C@]2(F)C(=O)O [Compound 9, (1R,2S,3R,5R,6R)-2-amino-3-(3,4-dichlorobenzylsulfanyl)-6-fluorobicyclo[3.1.0]hexane-2,6-dicarboxylic acid]"
7,> 271,"N[C@]1(C(=O)O)[C@H]2[C@@H](C[C@H]1SCc1cccc(C(F)(F)F)c1)[C@]2(F)C(=O)O [Compound 6, (1R,2S,3R,5R,6R)-2-amino-3-(3-trifluoromethylbenzylsulfanyl)-6-fluorobicyclo[3.1.0]hexane-2,6-dicarboxylic acid]"
8,> 243,"N[C@]1(C(=O)O)[C@H]2[C@@H](C[C@H]1SCc1ccc(F)cc1)[C@]2(F)C(=O)O [Compound 4, (1R,2S,3R,5R,6R)-2-amino-3-(4-fluorobenzylsulfanyl)-6-fluorobicyclo[3.1.0]hexane-2,6-dicarboxylic acid]"
